Reference: article PMC11884936, “MDC1 mediates Pellino recruitment to sites of DNA double-strand breaks” (Life Science Alliance, 2025)
Entries after “also recorded” stand apart in the source; their conditions may differ. Read-outs that look alike come from different tables or passages of the source. Square brackets hold non-standard residues; d marks the D form. Peptide text beside a SMILES is read from it. pT = C[C@@H](OP(=O)(O)O)[C@H](N)C(=O)O; pS = N[C@@H](COP(=O)(O)O)C(=O)O

What was measured:
Format in all cases: binding
Pellino 1 FHA = molecular target: T1, Pellino 1 FHA (Homo sapiens, UniProt Q96FA3); test: Isothermal titration calorimetry of phosphopeptides with PELI1 FHA fragment; details: for DG: ITC Gibbs free energy; for DG / DH / TDS: PELI1 FHA; for DG / DH / TDS / Kd: 25 mM HEPES pH 7.0, 200 mM NaCl, 1 mM TCEP; for DH: ITC change in enthalpy; for TDS: ITC temperature x change in entropy; for Kd: PELI1 FHA (residues 13–273) 16 μM in cell, peptide 160 μM in syringe, single-site binding model
T1 construct: PELI1 and 2 FHA domains (residues 13–273 and 15–275, respectively); GST (N, cleaved yes); made in house; host or cells: E. coli BL21 (DE3)
T1 sequence (Q96FA3 13-273): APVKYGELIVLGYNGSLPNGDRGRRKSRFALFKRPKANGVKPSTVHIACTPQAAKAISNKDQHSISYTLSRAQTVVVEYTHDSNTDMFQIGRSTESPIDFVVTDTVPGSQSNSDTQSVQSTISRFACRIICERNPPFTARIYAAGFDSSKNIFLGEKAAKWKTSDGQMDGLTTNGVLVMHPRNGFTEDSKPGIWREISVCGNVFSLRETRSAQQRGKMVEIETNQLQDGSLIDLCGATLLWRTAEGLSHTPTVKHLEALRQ
Experimental: (§1) The regions corresponding to the PELI1 and 2 FHA domains (residues 13–273 and 15–275, respectively) were cloned into the pGEX-6P1 vector using BamHI/XhoI restriction sites and expressed as a 3C protease-cleavable N-terminal GST fusion protein in BL21 (DE3) cells (NEB). A 20 ml LB overnight culture was inoculated into 1L of LB medium supplemented with 100 μg/ml ampicillin to an OD600 of 0.05 and incubated at 37°C, 250 rpm until an OD600 of 0.6 was reached, whereupon expression was induced with 1 mM isopropyl ß-D-1-thiogalactopyranoside (IPTG) and overnight incubation at 18°C. Overnight cultures were harvested for 20 min at 4,000g, 4°C and resuspended in 20 ml lysis buffer (50 mM HEPES pH 7.5, 150 mM NaCl, 0.2 mg/ml lysozyme, 20 μg/ml DNase, and 1x complete, EDTA-free protease inhibitor cocktail tablet) before sonication-mediated cell lysis. Insoluble material was removed by centrifugation (21,000g, 20 min) and the GST-FHA fusion proteins were purified from the clarified lysate containers using 1 ml bed volume of pre-equilibrated Glutathione Sepharose 4B beads. After washing with 20 column volumes of Pellino FHA buffer (50 mM HEPES pH 7.5, 150 mM NaCl), the protein was cleaved overnight at 4°C from GST with 1% (vol/vol) GST-3C protease and the flow-through was further purified by gel filtration using a HiLoad 16/60 Superdex 200 pg (Cytiva) column. Purified Pellino FHA domains were concentrated to 50 mg/ml with a 10 kD molecular weight cut-off concentrator (Sartorius).
(§2) For ITC analysis protein and peptides were buffer exchanged into 25 mM HEPES pH 7.0, 200 mM NaCl, 1 mM TCEP. Titrations were carried out using a Microcal PEAQ-ITC (Malvern) using 13 injections of peptide at a typical syringe concentration of 160 μM (1 × 0.4 μl, 12 × 3.0 μl) and FHA concentration of 16 μM in the cell. Data were analyzed with a single-site binding model using Microcal PEAQ-ITC software. Peptide sequences are: MDC1 pT699–AYDLQApTQCFA, MDC1-pT719–[…], MDC1-pT752–AYEVLApTQPFC, MDC1-pT765–AYEDSEpTQPFD, IRAK-pT141(+3Y)–AYSSASpTFLYP, γH2AX–GGKATQApSQEY. All peptides were synthesises with N-terminal acetylation and a C-terminal amide. MDC1 pT699 and pT719 were made with alanine substitutions at the pT+4 position (Leu and Met, respectively) to aid solubility and monodispersity.

Pellino 2 FHA = molecular target: T2, Pellino 2 FHA (Homo sapiens, UniProt Q9HAT8); test: Isothermal titration calorimetry of phosphopeptides with PELI2 FHA fragment; details: for DG: ITC Gibbs free energy; for DG / DH / TDS: PELI2 FHA; for DH: ITC change in enthalpy; for TDS: ITC temperature x change in entropy
T2 construct: PELI1 and 2 FHA domains (residues 13–273 and 15–275, respectively); GST (N, cleaved yes); made in house; host or cells: E. coli BL21 (DE3)
T2 sequence (Q9HAT8 15-275): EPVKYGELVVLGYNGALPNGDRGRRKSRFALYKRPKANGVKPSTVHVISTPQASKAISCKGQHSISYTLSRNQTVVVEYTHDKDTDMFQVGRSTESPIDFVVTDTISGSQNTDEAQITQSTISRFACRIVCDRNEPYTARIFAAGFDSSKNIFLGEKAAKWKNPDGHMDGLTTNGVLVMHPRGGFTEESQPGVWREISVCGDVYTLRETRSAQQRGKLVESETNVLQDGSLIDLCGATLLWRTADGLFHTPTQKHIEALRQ
Experimental: as §1, §2

MDC1 BRCT-r = molecular target: T3, MDC1 BRCT-r (Homo sapiens, UniProt Q14676); test: Isothermal titration calorimetry of γH2AX phosphopeptide with MDC1 BRCT-repeat fragment
T3 sequence (Q14676 1883-2089 limits assumed): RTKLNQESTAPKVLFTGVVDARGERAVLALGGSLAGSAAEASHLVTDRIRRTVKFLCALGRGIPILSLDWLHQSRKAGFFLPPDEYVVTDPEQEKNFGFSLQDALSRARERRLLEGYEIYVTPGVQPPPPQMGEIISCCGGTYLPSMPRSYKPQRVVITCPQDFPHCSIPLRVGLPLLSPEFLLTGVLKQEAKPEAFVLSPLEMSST
Experimental: as §2

[1] = 25 mM HEPES pH 7.0, 200 mM NaCl, 1 mM TCEP

| DG (Pellino 1 FHA) [kJ/mol] | DH (Pellino 1 FHA) [kJ/mol] | TDS (Pellino 1 FHA) [kJ/mol] | Kd (Pellino 1 FHA; ITC, read-out: Kd) [µM] | DG (Pellino 2 FHA; [1]) [kJ/mol] | DH (Pellino 2 FHA; [1]) [kJ/mol] | TDS (Pellino 2 FHA; [1]) [kJ/mol] | Kd (Pellino 1 FHA; ITC) | Kd (Pellino 2 FHA; ITC, PELI2 FHA (residues 15–275) 16 μM in cell, peptide 160 μM in syringe, 25 mM HEPES pH 7.0, 200 mM NaCl, 1 mM TCEP, single-site binding model) | DG (MDC1 BRCT-r; ITC Gibbs free energy, MDC1 BRCT-r) [kJ/mol] | DH (MDC1 BRCT-r; ITC change in enthalpy, MDC1 BRCT-r) [kJ/mol] | TDS (MDC1 BRCT-r; ITC temperature x change in entropy, MDC1 BRCT-r) [kJ/mol] | Kd (MDC1 BRCT-r; ITC, MDC1 BRCT-repeat fragment, 25 mM HEPES pH 7.0, 200 mM NaCl, 1 mM TCEP, single-site binding model) [µM] | tighter affinity than the other TQXF phosphopeptides (Pellino 1 FHA; ITC, compared with the other MDC1 TQXF phosphopeptides) | SMILES | interaction detected by ITC (in words) (Pellino 1 FHA; ITC, N-terminal PELI1 fragment (13–273), listed as γH2AX phosphopeptide) | interaction detected by ITC (in words) (Pellino 2 FHA; ITC, N-terminal PELI2 fragment, listed as γH2AX phosphopeptide) | interaction detected by ITC (in words) (MDC1 BRCT-r; ITC, purified MDC1 BRCT-repeat fragment, listed as γH2AX phosphopeptide) |
| --- | --- | --- | --- | --- | --- | --- | --- | --- | --- | --- | --- | --- | --- | --- | --- | --- | --- |
| – | – | – | – | – | – | – | N.D.B. | N.D.B. | -34.6 | -58.2 | -23.5 | 0.85 | – | CC(=O)NCC(=O)NCC(=O)N[C@@H](CCCCN)C(=O)N[C@@H](C)C(=O)N[C@H](C(=O)N[C@@H](CCC(N)=O)C(=O)N[C@@H](C)C(=O)N[C@@H](COP(=O)(O)O)C(=O)N[C@@H](CCC(N)=O)C(=O)N[C@@H](CCC(=O)O)C(=O)N[C@@H](Cc1ccc(O)cc1)C(N)=O)[C@@H](C)O [Peptide H2AX-pS139, reference compound] (Ac-GGKATQA[pS]QEY-NH2) | did not detect any interaction; also recorded: no detectable interactions | did not detect any interaction; also recorded: no detectable interactions | bound tightly; also recorded: tight binding |
| -38.0 | -92.1 | -54.1 | 0.23 | -36.7 | -137 | -100 | – | – | – | – | – | – | 5–10 fold | CC(=O)N[C@@H](C)C(=O)N[C@@H](Cc1ccc(O)cc1)C(=O)N[C@@H](CCC(=O)O)C(=O)N[C@@H](CC(=O)O)C(=O)N[C@@H](CO)C(=O)N[C@@H](CCC(=O)O)C(=O)N[C@H](C(=O)N[C@@H](CCC(N)=O)C(=O)N1CCC[C@H]1C(=O)N[C@@H](Cc1ccccc1)C(=O)N[C@@H](CC(=O)O)C(N)=O)[C@@H](C)OP(=O)(O)O [MDC1-pT765] (Ac-AYEDSE[pT]QPFD-NH2) | – | – | – |

More lines, now with the values behind:

| SMILES | DG (Pellino 1 FHA) [kJ/mol] | DH (Pellino 1 FHA) [kJ/mol] | TDS (Pellino 1 FHA) [kJ/mol] | Kd (Pellino 1 FHA; ITC, read-out: Kd) [µM] | DG (Pellino 2 FHA; [1]) [kJ/mol] | DH (Pellino 2 FHA; [1]) [kJ/mol] | TDS (Pellino 2 FHA; [1]) [kJ/mol] | Kd (Pellino 1 FHA; ITC) | Kd (Pellino 2 FHA; ITC, PELI2 FHA (residues 15–275) 16 μM in cell, peptide 160 μM in syringe, 25 mM HEPES pH 7.0, 200 mM NaCl, 1 mM TCEP, single-site binding model) | DG (MDC1 BRCT-r; ITC Gibbs free energy, MDC1 BRCT-r) [kJ/mol] | DH (MDC1 BRCT-r; ITC change in enthalpy, MDC1 BRCT-r) [kJ/mol] | TDS (MDC1 BRCT-r; ITC temperature x change in entropy, MDC1 BRCT-r) [kJ/mol] | Kd (MDC1 BRCT-r; ITC, MDC1 BRCT-repeat fragment, 25 mM HEPES pH 7.0, 200 mM NaCl, 1 mM TCEP, single-site binding model) [µM] | tighter affinity than the other TQXF phosphopeptides (Pellino 1 FHA; ITC, compared with the other MDC1 TQXF phosphopeptides) | interaction detected by ITC (in words) (Pellino 1 FHA; ITC, N-terminal PELI1 fragment (13–273), listed as γH2AX phosphopeptide) | interaction detected by ITC (in words) (Pellino 2 FHA; ITC, N-terminal PELI2 fragment, listed as γH2AX phosphopeptide) | interaction detected by ITC (in words) (MDC1 BRCT-r; ITC, purified MDC1 BRCT-repeat fragment, listed as γH2AX phosphopeptide) |
| --- | --- | --- | --- | --- | --- | --- | --- | --- | --- | --- | --- | --- | --- | --- | --- | --- | --- |
| CC(=O)N[C@@H](C)C(=O)N[C@@H](Cc1ccc(O)cc1)C(=O)N[C@@H](CCC(=O)O)C(=O)N[C@@H](CC(=O)O)C(=O)N[C@@H](CCC(=O)O)C(=O)N1CCC[C@H]1C(=O)N[C@H](C(=O)N[C@@H](CCC(N)=O)C(=O)N[C@@H](C)C(=O)N[C@@H](Cc1ccccc1)C(=O)N[C@@H](C)C(N)=O)[C@@H](C)OP(=O)(O)O [MDC1-pT719] (Ac-AYEDEP[pT]QAFA-NH2) | -34.0 | -91.2 | -57.3 | 1.14 | -33.8 | -145 | -111 | – | – | – | – | – | – | – | – | – | – |
| CC(=O)N[C@@H](C)C(=O)N[C@@H](Cc1ccc(O)cc1)C(=O)N[C@@H](CC(=O)O)C(=O)N[C@@H](CC(C)C)C(=O)N[C@@H](CCC(N)=O)C(=O)N[C@@H](C)C(=O)N[C@H](C(=O)N[C@@H](CCC(N)=O)C(=O)N[C@@H](CS)C(=O)N[C@@H](Cc1ccccc1)C(=O)N[C@@H](C)C(N)=O)[C@@H](C)OP(=O)(O)O [MDC1-pT699] (Ac-AYDLQA[pT]QCFA-NH2) | -32.5 | -77.5 | -44.9 | – | -34.0 | -83.4 | -49.4 | – | – | – | – | – | – | – | – | – | – |
| CC(=O)N[C@@H](C)C(=O)N[C@@H](Cc1ccc(O)cc1)C(=O)N[C@@H](CCC(=O)O)C(=O)N[C@H](C(=O)N[C@@H](CC(C)C)C(=O)N[C@@H](C)C(=O)N[C@H](C(=O)N[C@@H](CCC(N)=O)C(=O)N1CCC[C@H]1C(=O)N[C@@H](Cc1ccccc1)C(=O)N[C@@H](CS)C(N)=O)[C@@H](C)OP(=O)(O)O)C(C)C [MDC1-pT752] (Ac-AYEVLA[pT]QPFC-NH2) | -33.9 | -77.2 | -43.3 | 1.14 | -34.1 | -118 | -83.7 | – | – | – | – | – | – | – | – | – | – |
